In one data set the test system is primary human tenocytes. As to the kind of experiment: MTT cytotoxicity test on healthy tenocytes (individual substances and their combination). It counts as cell-based. Particulars: 24 hours. Here is the method:
The model is based on the use of primary human tenocytes, obtained through isolation from Achilles tendon, purchased from Zen-Bio (TEN-F), cultured and used according to the supplier's instructions. […] Preliminary cytotoxicity studies (i.e. MTT test (3-(4,5-dimethylthiazol-2-yl)-2,5-diphenyltetrazolium bromide) and the subsequent statistical analysis) were conducted on healthy tenocytes treated with the individual substances in order to identify the doses to be used for subsequent experiments, as well as the doses to be mixed to analyse synergism. Cells were seeded in 48 well multiwells, at a density of 6000 cells/well. After 48 ore, they were treated with different concentrations of vitamin C (from 0.88 μg/mL to 352 μg/mL), collagen peptides (from 100 μg/mL to 3000 μg/mL), astaxanthin (from 1 μg/mL to 1000 μg/mL) or resveratrol (from 0.1 μg/mL to 100 μg/mL) for 24 hours. The range of concentrations selected for each substance was determined based on the data reported in literature. The MTT test was conducted at the end of the treatment. […] The formazan deposits in the cells were then solubilised with isopropanol, obtaining a homogeneous solution whose absorbance can thus be measured at the spectrophotometer (absorbance at 510 nm). […]
(Tetrazolium assays rely on reduction of a dye to a coloured formazan, in cell work by metabolically active cells.)

Another data set deals with NF-kB and PI-3K. Particulars: human tenocytes; dose and time-dependent manner; cited from earlier work.

For `CC1=C(/C=C/C(C)=C/C=C/C(C)=C/C=C/C=C(C)/C=C/C=C(C)/C=C/C2=C(C)C(=O)[C@@H](O)CC2(C)C)C(C)(C)C[C@H](O)C1=O` [astaxanthin], the “toxicity / cell viability (MTT test)” value with primary human tenocytes (at the tested doses (collagen 100-3000 μg/mL, astaxanthin 1-1000 μg/mL), results not reported in detail) is on record as “devoid of toxicity”.

`Oc1ccc(/C=C/c2cc(O)cc(O)c2)cc1` [resveratrol, 5-[(E)-2-(4-hydroxyphenyl)ethenyl]benzene-1,3-diol]: the “effect on cell viability (MTT test)” value with primary human tenocytes (resveratrol 50 and 100 μg/ml) was “negative effect on cell viability”. Moreover, the “IL-1β-induced activation of NF-kB and PI-3K” value with NF-kB and PI-3K is “capable of suppressing IL-1β-induced activation of NF-kB and PI-3K”.

Source of the values: patent US20230024304A1, “A MULTICOMPONENT COMPOSITION COMPRISING A COLLAGEN, RESVERATROL AND ASTAXANTHIN AND THE USE THEREOF FOR THE TREATMENT OF TENDINOPATHIES” (KOLINPHARMA S.P.A., priority 2019, published 2023).
